Like-named read-outs stand apart in the source and are kept apart here.
How the values were obtained:
[1] = Gel formation of hypochlorite thickened with Laponite with added buffers; conditions: 200 ppm hypochlorite thickened with Laponite; for gel formation: acid added, amount not stated
[2] = Effect of thickeners on stability of dilute hypochlorite; format: physicochemical
Method: The amount of available halogen oxidant in the composition is determined by placing samples of the composition into about 50 milliliters of distilled water, followed by addition of about 10 milliliters of a 10 weight/weight percent solution of potassium iodide and addition of about 10 milliliters of a 10 volume percent solution of sulfuric acid, the resulting mixture being well stirred. The resulting yellow to brown solution, whose color is the result of oxidation of free iodine ion (I^−) to molecular iodine (I2), was then volumetrically titrated to an essentially colorless endpoint by addition of standardized 0.1 Molar sodium thiosulfate (Na2S2O3) titrant. Calculation then expresses the result as percent of available molecular chlorine (Cl2), that is to say assigning two equivalents per mole of titrated hypohalite oxidant. Stability results are then expressed by repeated assays over time using identically prepared samples resulting from the same composition, normalized to 100 percent representative of the starting available chlorine measured initially.

In the case of `OB(O)O` [Boric acid], the gel ([1]; buffer Wt. % 0.21, pH 8.5) was “Yes” and the gel ([1]; buffer Wt. % 0.41, pH 8.4) was “Yes”.
With `O=C(O)CCC(=O)O` [Succinic acid] the gel ([1]; buffer Wt. % 0.01, pH 9.2) was “Yes” and the gel ([1]; buffer Wt. % 0.04, pH 8.2) was “Viscous liquid”.
With `CC(=O)O` [acetic acid] the gel formation [1] was “Gels”.
In the case of `Cl` [hydrochloric acid], the gel formation [1] was “Gels”.
For `CCCCCCCCCCCCOS(=O)(=O)[O-].[Na+]` [sodium lauryl sulfate], the “stability of dilute hypochlorite with surfactant, compared with Vangel ES” value (“stability … compared with Vangel ES” below) ([2]; comparison with thickeners of Table 4) was “less stable than Vangel ES®”.
For `CCCCCCCCS(=O)(=O)[O-].[Na+]` [sodium octyl sulfonate], the “stability … compared with Vangel ES” value [2] was “less stable than Vangel ES®”.
In the case of `CCCCCCCCCCCCCCCC[N+](C)(C)C.[Cl-]` [trimethylC16 ammonium chloride], the “stability … compared with Vangel ES” value [2] was “less stable than Vangel ES®”.
With sodium alkylbenzenesulfonate the “stability … compared with Vangel ES” value [2] was “less stable than Vangel ES®”.
